The record followed here is US20260015358A1, “BICYCLIC DERIVATIVES, COMPOSITIONS AND USES THEREOF” (Danatlas Pharmaceuticals Co., Ltd., priority 2023, published 2026).

The target of assay [1] is T1, WRN [UniPro: Q14191 (WRN_HUMAN), N500-C946] (Homo sapiens (Human), UniProt Q14191). Nature of the assay: WRN unwinding assay (FORKF DNA, fluorescence). The assay is classed as biochemical. To be noted: Table 14.
For assay [2], the target named is T1, WRN [UniPro: Q14191 (WRN_HUMAN), N500-C946]. Nature of the assay: WRN ATPase assay (ADP-Glo). The assay is classed as biochemical. To be noted: WRN enzymatic activity assay. (ADP-Glo turns the ADP formed in a reaction into a luminescent signal.)

T1 sequence (Q14191 500-946): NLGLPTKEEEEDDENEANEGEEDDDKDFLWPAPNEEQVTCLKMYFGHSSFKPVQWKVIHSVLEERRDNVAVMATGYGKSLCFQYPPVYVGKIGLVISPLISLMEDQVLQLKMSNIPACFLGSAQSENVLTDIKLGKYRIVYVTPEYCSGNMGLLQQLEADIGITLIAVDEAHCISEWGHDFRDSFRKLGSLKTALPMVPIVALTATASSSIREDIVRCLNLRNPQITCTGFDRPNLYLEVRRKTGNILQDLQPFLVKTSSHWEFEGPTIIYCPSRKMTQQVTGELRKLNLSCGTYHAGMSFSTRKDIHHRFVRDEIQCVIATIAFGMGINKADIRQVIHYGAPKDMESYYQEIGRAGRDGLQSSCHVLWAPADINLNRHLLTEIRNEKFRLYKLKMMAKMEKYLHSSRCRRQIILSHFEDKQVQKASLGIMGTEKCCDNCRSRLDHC

As to `CCc1c(N2CCN(C(=O)CNC(=O)c3ccno3)CC2)c(=O)n2nc(C3=CCOCC3)nc2n1CC(=O)Nc1ccc(C(F)(F)F)cc1Cl` [Example 370, N-(2-(4-(4-(2-((2-Chloro-4-(trifluoromethyl)phenyl)amino)-2-oxoethyl)-2-(3,6-dihydro-2H-pyran-4-yl)-5-ethyl-7-oxo-4,7-dihydro-[1,2,4]triazolo[1,5-a]pyrimidin-6-yl)piperazin-1-yl)-2-oxoethyl) isoxazole-5-carboxamide], the concentration for half-maximal inhibition (IC50) in assay [1] and in assay [2] was under 100 nM each time.

With `CCc1c(N2CCN(C(=O)CNC(=O)c3cc(OC)ccc3F)CC2)c(=O)n2nc(C3=CCOCC3)nc2n1CC(=O)Nc1ccc(C(F)(F)F)cc1Cl` [Example 378, N-(2-(4-(4-(2-((2-Chloro-4-(trifluoromethyl)phenyl)amino)-2-oxoethyl)-2-(3,6-dihydro-2H-pyran-4-yl)-5-ethyl-7-oxo-4,7-dihydro-[1,2,4]triazolo[1,5-a]pyrimidin-6-yl)piperazin-1-yl)-2-oxoethyl)-2-fluoro-5-methoxybenzamide], the IC50 in assay [1] and in assay [2] was under 100 nM each time.

As for `CCc1c(N2CCN(C(=O)CNC(=O)c3cccc(O)c3F)CC2)c(=O)n2nc(N3CCOCC3)nc2n1CC(=O)Nc1ccc(C(F)(F)F)cc1F` [Example 252, N-(2-(4-(5-Ethyl-4-(2-((2-fluoro-4-(trifluoromethyl)phenyl)amino)-2-oxoethyl)-2-morpholino-7-oxo-4,7-dihydro-[1,2,4]triazolo[1,5-a]pyrimidin-6-yl)piperazin-1-yl)-2-oxoethyl)-2-fluoro-3-hydroxybenzamide], the IC50 in assay [1] and in assay [2] was under 100 nM throughout.

As for `CCc1c(N2CCN(C(=O)CNC(=O)c3ccc(C(F)(F)F)cc3)CC2)c(=O)n2nc(C3=CCOCC3)nc2n1CC(=O)Nc1ccc(C(F)(F)F)cc1Cl` [Example 176, N-(2-(4-(4-(2-((2-Chloro-4-(trifluoromethyl)phenyl)amino)-2-oxoethyl)-2-(3,6-dihydro-2H-pyran-4-yl)-5-ethyl-7-oxo-4,7-dihydro-[1,2,4]triazolo[1,5-a]Pyrimidin-6-yl)piperazin-1-yl)-2-oxoethyl)-4-(trifluoromethyl)benzamide], the IC50 in assay [1] and in assay [2] was 100 to 1000 nM in each case.

Consider `CCc1c(N2CCN(C(=O)CNC(=O)c3cc(NC)ccc3F)CC2)c(=O)n2nc(C3=CCOCC3)nc2n1CC(=O)Nc1ccc(C(F)(F)F)cc1Cl` [Example 289, N-(2-(4-(4-(2-((2-Chloro-4-(trifluoromethyl)phenyl)amino)-2-oxoethyl)-2-(3,6-dihydro-2H-pyran-4-yl)-5-ethyl-7-oxo-4,7-dihydro-[1,2,4]triazolo[1,5-a]pyrimidin-6-yl)piperazin-1-yl)-2-oxoethyl)-2-fluoro-5-(methylamino)benzamide], for which the IC50 in assay [1] and in assay [2] was under 100 nM throughout.

Take `CCc1c(N2CCN(C(=O)CNC(=O)c3ccnn3C)CC2)c(=O)n2nc(C3=CCOCC3)nc2n1CC(=O)Nc1ccc(C(F)(F)F)cc1Cl` [Example 114, N-(2-(4-(4-(2-((2-Chloro-4-(trifluoromethyl)phenyl)amino)-2-oxoethyl)-2-(3,6-dihydro-2H-pyran-4-yl)-5-ethyl-7-oxo-4,7-dihydro-[1,2,4]triazolo[1,5-a]pyrimidin-6-yl)piperazin-1-yl)-2-oxoethyl)-1-methyl-1H-pyrazole-5-carboxamide]: the IC50 in assay [1] and in assay [2] was under 100 nM in each case.

In the case of `CCc1c(N2CCN(C(=O)c3cc4cnccc4[nH]3)CC2)c(=O)n2nc(C3=CCOCC3)nc2n1CC(=O)Nc1ccc(C(F)(F)F)cc1Cl` [Example 313, 2-(6-(4-(1H-Pyrrolo[3,2-c]pyridine-2-carbonyl)piperazin-1-yl)-2-(3,6-dihydro-2H-pyran-4-yl)-5-ethyl-7-oxo-[1,2,4]triazolo[1,5-a]pyrimidin-4(7H)-yl)-N-(2-chloro-4-(trifluoromethyl)phenyl)acetamide], the IC50 in assay [1] and in assay [2] was 100 to 1000 nM in each case.

As to `CCc1c(N2CCN(C(=O)CNC(=O)Cc3ccccc3F)CC2)c(=O)n2nc(C3=CCOCC3)nc2n1CC(=O)Nc1ccc(C(F)(F)F)cc1Cl` [Example 274, N-(2-Chloro-4-(trifluoromethyl)phenyl)-2-(2-(3,6-dihydro-2H-pyran-4-yl)-5-ethyl-6-(4-((2-(2-fluorophenyl)acetyl)glycyl)piperazin-1-yl)-7-oxo-[1,2,4]triazolo[1,5-a]pyrimidin-4(7H)-yl)acetamide], the IC50 in assay [1] and in assay [2] was under 100 nM each time.

Take `CCc1c(N2CCN(C(=O)CNC(=O)N3Cc4ccncc4C3)CC2)c(=O)n2nc(C3=CCOCC3)nc2n1CC(=O)Nc1ccc(C(F)(F)F)cc1Cl` [Example 192, N-(2-(4-(4-(2-((2-Chloro-4-(trifluoromethyl)phenyl)amino)-2-oxoethyl)-2-(3,6-dihydro-2H-pyran-4-yl)-5-ethyl-7-oxo-4,7-dihydro-[1,2,4]triazolo[1,5-a]pyrimidin-6-yl)piperazin-1-yl)-2-oxoethyl)-1,3-dihydro-2H-pyrrolo[3,4-c]pyridine-2-carboxamide]: the IC50 in assay [1] and in assay [2] was under 100 nM in each case.

For the molecule `CCc1c(N2CCN(C(=O)c3ncc4nc(Cl)sc4c3O)CC2)c(=O)n2nc(C3=CCOCC3)nc2n1CC(=O)Nc1ccc(C(F)(F)F)cc1Cl` [Example 196, N-(2-Chloro-4-(trifluoromethyl)phenyl)-2-(6-(4-(2-chloro-7-hydroxythiazolo[4,5-c]pyridine-6-carbonyl)piperazin-1-yl)-2-(3,6-dihydro-2H-pyran-4-yl)-5-ethyl-7-oxo-[1,2,4]triazolo[1,5-a]pyrimidin-4(7H)-yl)acetamide], the concentration for half-maximal inhibition (IC50) in assay [1] and in assay [2] was under 100 nM throughout.

Turning to `CCc1c(N2CCN(C(=O)CNC(=O)c3cc(F)cc(F)c3)CC2)c(=O)n2nc(C3=CCOCC3)nc2n1CC(=O)Nc1ccc(C(F)(F)F)cc1Cl` [Example 115, N-(2-(4-(4-(2-((2-Chloro-4-(trifluoromethyl)phenyl)amino)-2-oxoethyl)-2-(3,6-dihydro-2H-pyran-4-yl)-5-ethyl-7-oxo-4,7-dihydro-[1,2,4]triazolo[1,5-a]pyrimidin-6-yl)piperazin-1-yl)-2-oxoethyl)-3,5-difluorobenzamide], the IC50 in assay [1] and in assay [2] was under 100 nM each time.

As for `CCC(=O)N1CCN(c2c(CC)n(CC(=O)Nc3ccc(C(F)(F)F)cc3Cl)c3nc(C4=CCOCC4)nn3c2=O)CC1` [Example 27, N-(2-Chloro-4-(trifluoromethyl)phenyl)-2-(2-(3,6-dihydro-2H-pyran-4-yl)-5-ethyl-7-oxo-6-(4-propionylpiperazin-1-yl)-[1,2,4]triazolo[1,5-a]pyrimidin-4(7H)-yl)acetamide], the IC50 (in general, the concentration that inhibits the measured activity by half) in assay [1] is under 100 nM; in assay [2] it was 100 to 1000 nM.

`CCc1c(N2CCN(C(=O)C3CCC(=O)N3)CC2)c(=O)n2nc(C3=CCOCC3)nc2n1CC(=O)Nc1ccc(C(F)(F)F)cc1Cl` (stereo not drawn) [Example 66, N-(2-Chloro-4-(trifluoromethyl)phenyl)-2-(2-(3,6-dihydro-2H-pyran-4-yl)-5-ethyl-7-oxo-6-(4-(5-oxopyrrolidine-2-carbonyl)piperazin-1-yl)-[1,2,4]triazolo[1,5-a]pyrimidin-4(7H)-yl)acetamide]: the IC50 in assay [1] and in assay [2] was over 1000 nM in each case.

As for `CCc1c(N2CCN(C(=O)CNC(=O)c3ccc(F)c(NC)c3)CC2)c(=O)n2nc(C3=CCOCC3)nc2n1CC(=O)Nc1ccc(C(F)(F)F)cc1Cl` [Example 285, N-(2-(4-(4-(2-((2-Chloro-4-(trifluoromethyl)phenyl)amino)-2-oxoethyl)-2-(3,6-dihydro-2H-pyran-4-yl)-5-ethyl-7-oxo-4,7-dihydro-[1,2,4]triazolo[1,5-a]pyrimidin-6-yl)piperazin-1-yl)-2-oxoethyl)-4-fluoro-3-(methylamino)benzamide], the IC50 in assay [1] and in assay [2] was under 100 nM each time.

As to `CCc1c(N2CCN(C(=O)c3cc(-c4cc(OC)ncc4F)[nH]n3)CC2)c(=O)n2nc(C3=CCOCC3)nc2n1CC(=O)Nc1ccc(C(F)(F)F)cc1Cl` [Example 9, N-(2-Chloro-4-(trifluoromethyl)phenyl)-2-(2-(3,6-dihydro-2H-pyran-4-yl)-5-ethyl-6-(4-(5-(5-fluoro-2-methoxypyridin-4-yl)-1H-pyrazole-3-carbonyl)piperazin-1-yl)-7-oxo-[1,2,4]triazolo[1,5-a]pyrimidin-4(7H)-yl)acetamide], the half-inhibitory concentration (IC50) is over 1000 nM in assay [1] and 100 to 1000 nM in assay [2].

For `CCc1c(N2CCN(C(=O)CNC(=O)c3ccccc3)CC2)c(=O)n2nc(N3CCc4ncccc43)nc2n1CC(=O)Nc1ccc(C(F)(F)F)cc1Cl` [Example 234, N-(2-(4-(4-(2-((2-Chloro-4-(trifluoromethyl)phenyl)amino)-2-oxoethyl)-2-(2,3-dihydro-1H-pyrrolo[3,2-b]pyridin-1-yl)-5-ethyl-7-oxo-4,7-dihydro-[1,2,4]triazolo[1,5-a]pyrimidin-6-yl)piperazin-1-yl)-2-oxoethyl)benzamide], the IC50 is under 100 nM in assay [1] and 100 to 1000 nM in assay [2].

Regarding `CCc1c(N2CCN(C(=O)c3ncc4nc(Cl)sc4c3O)CC2)c(=O)n2nc(C3=CCOCC3)nc2n1CC(=O)Nc1ccc(C(F)(F)F)cc1F` [Example 199, 2-(6-(4-(2-Chloro-7-hydroxythiazolo[4,5-c]pyridine-6-carbonyl)piperazin-1-yl)-2-(3,6-dihydro-2H-pyran-4-yl)-5-ethyl-7-oxo-[1,2,4]triazolo[1,5-a]pyrimidin-4(7H)-yl)-N-(2-fluoro-4-(trifluoromethyl)phenyl)acetamide], the IC50 in assay [1] and in assay [2] was under 100 nM throughout.

Regarding `CCc1c(N2CCN(C(=O)CNC(=O)c3ccccc3F)CC2)c(=O)n2nc(C3=CCOCC3)nc2n1CC(=O)Nc1cc(C(F)(F)F)n(C)n1` [Example 162, N-(2-(4-(2-(3,6-Dihydro-2H-pyran-4-yl)-5-ethyl-4-(2-((1-methyl-5-(trifluoromethyl)-1H-pyrazol-3-yl)amino)-2-oxoethyl)-7-oxo-4,7-dihydro-[1,2,4]triazolo[1,5-a]pyrimidin-6-yl)piperazin-1-yl)-2-oxoethyl)-2-fluorobenzamide], the half-inhibitory concentration (IC50) in assay [1] and in assay [2] was 100 to 1000 nM each time.
